Laboratory results: USRE38994E1, “Pyropheophorbides conjugates and their use in photodynamic therapy” (Health Research, Inc., priority 1988, dated 2006)

Key:
SMT-F tumor = assay: In vivo tumor photosensitizing activity (photodynamic tumor treatment); set-up: species or system DBA/2 mice; details: for Tumor Response Day 1 (Number of non-palpable tumors/Number treated tumors) / Tumor Response Day 7 (Number of non-palpable tumors/Number treated tumors) / Tumor Response Day 30 (Number of non-palpable tumors/Number treated tumors) / Tumor Response Day 90 (Number of non-palpable tumors/Number treated tumors): time interval 24 hours, 135 J/cm^2 laser at 75 mW/cm^2
Protocol: When 2-[1-(O-hexyl)ethyl]devinyl pyropheophorbide-a - structure (5) in Scheme 1: S—RO—where R═(CH2)5CH3 and m═H, (formula IIa) synthesized as indicated (5.0 mg) is dissolved in Tween 80 (0.1 ml) and mixed with 10 ml Hanks Balanced Salt Solution (HBSS), a solution of approximately 0.5 mg/ml in […] is produced after filtration through a 0.22 AM Millipore filter. […] […] Alternately, a Xenon arc lamp filtered to emit a broader band width near 670 nm and approximately 283 Joules/cm^2 can be used.
This progresses to frank tumor necrosis over the next few days. […] At 30 days post treatment, six of the 10 tumors remain non-palpable, and one remains tumor-free to 90 days post treatment.

[1] = Normal foot response / skin clearance after light exposure; format: in vivo, albino Swiss mice (HaICR); details: for Normal Foot Response Maximum Reaction (score): same light conditions as tumor treatment, score 0.3 - slight edema, 0 - no reaction
Protocol: Six albino Swiss mice (HaICR) are injected intravenously with a dose of 0.1 mg/kg body weight of the compound of formula IIa prepared as in Example 1. After approximately 24 h, the hind foot of the animal is exposed to the same dose of either laser light at 660-670 nm (135 Joules/cm^2) or the Xenon arc lamp (283 Joules/cm^2) as above. The reaction of the foot is scored for damage over the next few days to determine the maximum effect, which in this case is a value 0.3 equivalent to slight edema. If the internal between the injection and light treatment is extended to approximately 48 h, the foot reaction is zero (no damage incurred), indicating either clearance or metabolism of the sensitizer.

tumor = assay: in vivo tumoricidal activity assay; details: injected at a dose of 5 mg/kg
[2] = injected dose 0.1 mg/kg, wavelength 659
[3] = injected dose 0.3 mg/kg, wavelength 659
[4] = injected dose 0.3 mg/kg, wavelength 665
[5] = injected dose 0.3 mg/kg, wavelength 670
[6] = injected dose 0.3 mg/kg, wavelength 680
[7] = ten mice, 0.3 mg/kg intravenously, approx. 24 h later laser light at 660-670 nm, 135 Joules/cm^2
[8] = injected dose 0.1 mg/kg, wavelength 660
[9] = injected dose 0.3 mg/kg, wavelength 660

## CCCCCCOC(C)c1c(C)c2cc3nc(c4c5[nH]c(cc6nc(cc1[nH]2)C(C)=C6CC)c(C)c5C(=O)C4)[C@@H](CCC(=O)O)[C@@H]3C (stereo partly shown) [Formula II R5 = —O—(CH2)5CH3 R7 = —CO2H, 2-{1(O-hexyl)ethyl}devinyl pyropheophorbide-a]
SMT-F tumor; injected dose 0.05 mg/kg, wavelength 659
  Tumor Response Day 1 (Number of non-palpable tumors/Number treated tumors): 0/40
SMT-F tumor; [2]
  Tumor Response Day 1 (Number of non-palpable tumors/Number treated tumors): 6/6
  Tumor Response Day 7 (Number of non-palpable tumors/Number treated tumors): 6/6
  Tumor Response Day 30 (Number of non-palpable tumors/Number treated tumors): 1/6
  Tumor Response Day 90 (Number of non-palpable tumors/Number treated tumors): 1/6
SMT-F tumor; injected dose 0.3 mg/kg, wavelength 655
  Tumor Response Day 1 (Number of non-palpable tumors/Number treated tumors): 0/10
SMT-F tumor; [3]
  Tumor Response Day 1 (Number of non-palpable tumors/Number treated tumors): 5/5
  Tumor Response Day 7 (Number of non-palpable tumors/Number treated tumors): 4/5
  Tumor Response Day 30 (Number of non-palpable tumors/Number treated tumors): 0/5
SMT-F tumor; [4]
  Tumor Response Day 1 (Number of non-palpable tumors/Number treated tumors): 10/10
  Tumor Response Day 7 (Number of non-palpable tumors/Number treated tumors): 10/10
  Tumor Response Day 30 (Number of non-palpable tumors/Number treated tumors): 2/10
  Tumor Response Day 90 (Number of non-palpable tumors/Number treated tumors): 0/10
SMT-F tumor; [5]
  Tumor Response Day 1 (Number of non-palpable tumors/Number treated tumors): 10/10
  Tumor Response Day 7 (Number of non-palpable tumors/Number treated tumors): 10/10
  Tumor Response Day 30 (Number of non-palpable tumors/Number treated tumors): 6/10
  Tumor Response Day 90 (Number of non-palpable tumors/Number treated tumors): 1/10
SMT-F tumor; [6]
  Tumor Response Day 1 (Number of non-palpable tumors/Number treated tumors): 1/10
  Tumor Response Day 7 (Number of non-palpable tumors/Number treated tumors): 0/10
SMT-F tumor; [7]
  Tumor state at 7 days post treatment: all tumors remain non-palpable and necrotic
  Tumor state the day after light treatment: all the tumors are seen to be flat (non-palpable)
  Tumor-free to 90 days post treatment (number of the 10): one
  Tumors remaining non-palpable at 30 days post treatment: six of the 10
[1]; 0.1 mg/kg intravenously, hind foot exposed after approx. 24 h, 660-670 nm laser 135 Joules/cm^2 or Xenon arc lamp 283 Joules/cm^2, 0.3 equivalent to slight edema
  Foot reaction, maximum effect (damage score): 0.3
[1]; 0.1 mg/kg intravenously, interval between injection and light treatment approx. 48 h, zero = no damage incurred
  Foot reaction (damage score): zero
[1]; table row of injected dose 0.1 mg/kg, time interval 24 hours
  Normal Foot Response Maximum Reaction (score): 0.3
[1]; table row of injected dose 0.3 mg/kg, time interval 48-72 hours
  Normal Foot Response Maximum Reaction (score): 0

## C=Cc1c(C)c2cc3nc(c4c5[nH]c(cc6nc(cc1[nH]2)C(C)=C6CC)c(C)c5C(=O)[C@@H]4C(=O)OC)[C@@H](CCC(=O)OC)[C@@H]3C [Methyl pheophorbide-a]
tumor
  in vivo tumoricidal activity: inactive

## CCCCCCOC(C)c1c(C)c2cc3nc(c4c5[nH]c(cc6nc(cc1[nH]2)C(C)=C6CC)c(C)c5C(=O)C4)[C@@H](CCC(=O)OC)[C@@H]3C (stereo partly shown) [Methyl-2-{1(O-hexyl)ethyl}-devinyl pyropheophorbide]
SMT-F tumor; [8]
  Tumor Response Day 1 (Number of non-palpable tumors/Number treated tumors): 5/5
  Tumor Response Day 30 (Number of non-palpable tumors/Number treated tumors): 0/5
SMT-F tumor; [9]
  Tumor Response Day 1 (Number of non-palpable tumors/Number treated tumors): 6/6
  Tumor Response Day 7 (Number of non-palpable tumors/Number treated tumors): 6/6
  Tumor Response Day 30 (Number of non-palpable tumors/Number treated tumors): 3/6
  Tumor Response Day 90 (Number of non-palpable tumors/Number treated tumors): 3/6
